According to article PMC7026418, “The kinase polypharmacology landscape of clinical PARP inhibitors” (Scientific Reports, 2020):
Like-named read-outs stand apart in the source and are kept apart here.

Tests used:
Test in all cases: biochemical
Design in all cases: DiscoveRx KINOMEscan active site-directed competition binding; percent of control kinase bound to immobilised ligand
PIKFYVE = PIKFYVE (Homo sapiens, UniProt Q9Y2I7)
[1] = target: T1, ABL1(T315I)-nonphosphorylated (Homo sapiens, UniProt P00519, T315I)
T1 construct: nonphosphorylated

PLK4 = target: T2, PLK4 (Homo sapiens, UniProt O00444)
T2 sequence (O00444 1-970): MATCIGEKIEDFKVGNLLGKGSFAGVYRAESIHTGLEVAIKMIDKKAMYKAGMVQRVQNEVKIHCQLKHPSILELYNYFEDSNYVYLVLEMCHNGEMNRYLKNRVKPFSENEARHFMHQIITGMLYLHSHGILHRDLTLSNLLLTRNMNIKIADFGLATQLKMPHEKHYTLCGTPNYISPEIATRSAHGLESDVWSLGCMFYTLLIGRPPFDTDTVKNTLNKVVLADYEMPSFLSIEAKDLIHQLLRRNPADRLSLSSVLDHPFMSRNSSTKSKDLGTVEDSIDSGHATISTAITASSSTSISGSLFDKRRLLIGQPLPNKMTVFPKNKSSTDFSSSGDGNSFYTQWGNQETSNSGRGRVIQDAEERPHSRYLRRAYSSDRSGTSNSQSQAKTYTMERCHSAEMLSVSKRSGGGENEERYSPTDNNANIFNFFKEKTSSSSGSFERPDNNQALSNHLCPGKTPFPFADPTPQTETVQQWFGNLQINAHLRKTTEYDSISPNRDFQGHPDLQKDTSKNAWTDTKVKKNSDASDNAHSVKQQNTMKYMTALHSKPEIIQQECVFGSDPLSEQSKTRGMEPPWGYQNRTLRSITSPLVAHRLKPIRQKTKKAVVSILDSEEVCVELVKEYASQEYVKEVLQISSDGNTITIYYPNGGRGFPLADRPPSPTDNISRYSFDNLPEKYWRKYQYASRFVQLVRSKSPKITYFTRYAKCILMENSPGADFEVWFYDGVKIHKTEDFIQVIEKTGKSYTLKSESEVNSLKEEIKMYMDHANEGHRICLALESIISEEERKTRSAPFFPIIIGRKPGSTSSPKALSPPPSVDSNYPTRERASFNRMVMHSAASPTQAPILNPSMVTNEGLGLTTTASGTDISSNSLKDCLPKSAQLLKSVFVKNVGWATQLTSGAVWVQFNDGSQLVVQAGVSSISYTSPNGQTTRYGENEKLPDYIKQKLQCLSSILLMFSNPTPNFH

EGFR(L747-T751del,Sins) = EGFR(L747-T751del,Sins) (Homo sapiens, UniProt P00533, DEL747-750/T751S)
DYRK1A = DYRK1A (Homo sapiens, UniProt Q13627)
[2] = target: T3, ABL1(E255K)-phosphorylated (Homo sapiens, UniProt P00519, E255K)
T3 construct: phosphorylated

PIK3CA(Q546K) = PIK3CA(Q546K) (Homo sapiens, UniProt P42336, Q546K)
PIK3CA(Q546K), sequence (P42336 whole entry Q546K): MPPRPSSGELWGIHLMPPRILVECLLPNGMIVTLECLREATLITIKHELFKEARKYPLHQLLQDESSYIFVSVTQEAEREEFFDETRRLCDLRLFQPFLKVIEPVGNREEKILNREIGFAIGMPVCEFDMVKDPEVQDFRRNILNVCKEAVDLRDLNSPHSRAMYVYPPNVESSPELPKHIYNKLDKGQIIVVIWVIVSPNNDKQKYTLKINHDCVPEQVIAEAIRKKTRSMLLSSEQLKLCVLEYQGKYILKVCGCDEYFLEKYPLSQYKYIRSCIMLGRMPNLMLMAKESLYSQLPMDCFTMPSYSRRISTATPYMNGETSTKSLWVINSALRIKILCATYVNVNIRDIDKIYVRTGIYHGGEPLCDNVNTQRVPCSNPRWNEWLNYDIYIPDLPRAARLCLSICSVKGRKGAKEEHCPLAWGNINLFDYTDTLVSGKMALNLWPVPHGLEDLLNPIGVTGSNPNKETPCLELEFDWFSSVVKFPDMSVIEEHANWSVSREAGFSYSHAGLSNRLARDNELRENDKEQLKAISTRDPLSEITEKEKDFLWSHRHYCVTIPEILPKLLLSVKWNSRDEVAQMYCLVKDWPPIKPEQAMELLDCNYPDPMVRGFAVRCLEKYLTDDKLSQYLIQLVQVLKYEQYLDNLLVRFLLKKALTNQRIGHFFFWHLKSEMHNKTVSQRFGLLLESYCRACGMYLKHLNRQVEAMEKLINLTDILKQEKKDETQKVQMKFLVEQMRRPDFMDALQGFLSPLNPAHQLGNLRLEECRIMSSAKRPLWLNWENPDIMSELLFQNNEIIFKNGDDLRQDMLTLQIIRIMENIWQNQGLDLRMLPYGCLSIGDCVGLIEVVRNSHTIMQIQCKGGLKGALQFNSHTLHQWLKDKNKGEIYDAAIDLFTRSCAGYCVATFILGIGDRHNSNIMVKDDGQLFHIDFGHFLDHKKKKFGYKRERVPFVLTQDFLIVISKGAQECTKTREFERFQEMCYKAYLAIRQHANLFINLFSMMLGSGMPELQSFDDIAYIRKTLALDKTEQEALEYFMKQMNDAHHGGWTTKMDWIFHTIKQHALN

S6K1 = target: T4, S6K1 (Homo sapiens, UniProt P23443)
T4 construct: gene RPS6KB1
T4 sequence (P23443 whole entry): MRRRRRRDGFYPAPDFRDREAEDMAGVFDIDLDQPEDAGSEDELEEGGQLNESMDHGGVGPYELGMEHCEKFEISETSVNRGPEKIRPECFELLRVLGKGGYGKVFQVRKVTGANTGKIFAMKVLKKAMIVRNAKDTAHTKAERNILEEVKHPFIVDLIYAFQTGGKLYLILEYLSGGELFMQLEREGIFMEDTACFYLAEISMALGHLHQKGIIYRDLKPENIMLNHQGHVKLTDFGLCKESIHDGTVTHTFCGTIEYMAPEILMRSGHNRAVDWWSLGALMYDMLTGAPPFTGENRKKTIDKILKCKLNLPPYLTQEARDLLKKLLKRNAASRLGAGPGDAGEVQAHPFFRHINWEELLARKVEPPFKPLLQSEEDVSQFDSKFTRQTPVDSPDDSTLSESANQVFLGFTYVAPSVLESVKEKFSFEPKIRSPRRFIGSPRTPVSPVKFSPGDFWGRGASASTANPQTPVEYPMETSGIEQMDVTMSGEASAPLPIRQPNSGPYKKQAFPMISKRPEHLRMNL

TSSK3 = target: T5, TSSK3 (Homo sapiens, UniProt Q96PN8)
T5 sequence (Q96PN8 1-268): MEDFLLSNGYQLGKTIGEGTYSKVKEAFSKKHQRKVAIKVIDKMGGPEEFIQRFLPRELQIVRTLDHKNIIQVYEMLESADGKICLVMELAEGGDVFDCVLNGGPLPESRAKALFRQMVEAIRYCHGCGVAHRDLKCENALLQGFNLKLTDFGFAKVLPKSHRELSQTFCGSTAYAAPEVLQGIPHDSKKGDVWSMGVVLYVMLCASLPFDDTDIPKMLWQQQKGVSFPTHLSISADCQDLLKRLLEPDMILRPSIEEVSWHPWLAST

[3] = target: T6, JAK1(JH1domain-catalytic) (Homo sapiens, UniProt P23458)
T6 construct: JH1domain-catalytic
T6 sequence (P23458 whole entry): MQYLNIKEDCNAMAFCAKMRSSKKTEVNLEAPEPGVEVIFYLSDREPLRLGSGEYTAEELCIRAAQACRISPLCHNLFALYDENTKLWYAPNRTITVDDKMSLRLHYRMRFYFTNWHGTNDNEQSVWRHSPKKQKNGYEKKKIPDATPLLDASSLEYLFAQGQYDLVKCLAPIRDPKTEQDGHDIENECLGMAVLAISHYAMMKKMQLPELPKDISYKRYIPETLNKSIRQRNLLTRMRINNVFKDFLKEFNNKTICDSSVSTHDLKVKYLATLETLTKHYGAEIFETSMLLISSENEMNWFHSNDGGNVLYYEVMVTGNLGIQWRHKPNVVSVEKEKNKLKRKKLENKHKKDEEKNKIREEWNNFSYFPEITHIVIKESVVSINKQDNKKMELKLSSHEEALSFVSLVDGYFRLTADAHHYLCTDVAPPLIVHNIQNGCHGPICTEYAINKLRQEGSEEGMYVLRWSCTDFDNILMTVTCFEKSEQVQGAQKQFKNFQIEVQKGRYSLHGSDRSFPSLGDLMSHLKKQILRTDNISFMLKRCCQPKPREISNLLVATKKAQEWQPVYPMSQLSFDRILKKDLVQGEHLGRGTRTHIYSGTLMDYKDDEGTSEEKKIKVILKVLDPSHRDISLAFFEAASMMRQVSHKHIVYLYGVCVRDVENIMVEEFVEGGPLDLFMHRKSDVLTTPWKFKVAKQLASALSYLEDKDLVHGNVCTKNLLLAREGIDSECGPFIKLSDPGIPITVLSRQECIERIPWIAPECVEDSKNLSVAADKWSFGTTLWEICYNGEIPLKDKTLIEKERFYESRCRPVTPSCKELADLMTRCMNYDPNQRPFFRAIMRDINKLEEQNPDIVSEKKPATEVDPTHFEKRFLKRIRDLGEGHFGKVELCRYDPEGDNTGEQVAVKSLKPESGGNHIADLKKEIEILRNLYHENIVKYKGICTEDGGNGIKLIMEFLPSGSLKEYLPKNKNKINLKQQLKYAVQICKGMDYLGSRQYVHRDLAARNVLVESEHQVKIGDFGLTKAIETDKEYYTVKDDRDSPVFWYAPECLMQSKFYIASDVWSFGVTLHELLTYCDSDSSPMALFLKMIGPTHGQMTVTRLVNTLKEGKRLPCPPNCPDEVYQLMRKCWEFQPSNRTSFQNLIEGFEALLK

[4] = read-out: Niraparib (MK-4827) / %Ctrl @ 10000nM
[5] = read-out: Olaparib / %Ctrl @ 10000nM
[6] = read-out: Rucaparib / %Ctrl @ 10000nM, binding competition, % of control
[7] = read-out: Talazoparib (BMN 673) / %Ctrl @ 10000nM

PIKFYVE, sequence (Q9Y2I7 whole entry): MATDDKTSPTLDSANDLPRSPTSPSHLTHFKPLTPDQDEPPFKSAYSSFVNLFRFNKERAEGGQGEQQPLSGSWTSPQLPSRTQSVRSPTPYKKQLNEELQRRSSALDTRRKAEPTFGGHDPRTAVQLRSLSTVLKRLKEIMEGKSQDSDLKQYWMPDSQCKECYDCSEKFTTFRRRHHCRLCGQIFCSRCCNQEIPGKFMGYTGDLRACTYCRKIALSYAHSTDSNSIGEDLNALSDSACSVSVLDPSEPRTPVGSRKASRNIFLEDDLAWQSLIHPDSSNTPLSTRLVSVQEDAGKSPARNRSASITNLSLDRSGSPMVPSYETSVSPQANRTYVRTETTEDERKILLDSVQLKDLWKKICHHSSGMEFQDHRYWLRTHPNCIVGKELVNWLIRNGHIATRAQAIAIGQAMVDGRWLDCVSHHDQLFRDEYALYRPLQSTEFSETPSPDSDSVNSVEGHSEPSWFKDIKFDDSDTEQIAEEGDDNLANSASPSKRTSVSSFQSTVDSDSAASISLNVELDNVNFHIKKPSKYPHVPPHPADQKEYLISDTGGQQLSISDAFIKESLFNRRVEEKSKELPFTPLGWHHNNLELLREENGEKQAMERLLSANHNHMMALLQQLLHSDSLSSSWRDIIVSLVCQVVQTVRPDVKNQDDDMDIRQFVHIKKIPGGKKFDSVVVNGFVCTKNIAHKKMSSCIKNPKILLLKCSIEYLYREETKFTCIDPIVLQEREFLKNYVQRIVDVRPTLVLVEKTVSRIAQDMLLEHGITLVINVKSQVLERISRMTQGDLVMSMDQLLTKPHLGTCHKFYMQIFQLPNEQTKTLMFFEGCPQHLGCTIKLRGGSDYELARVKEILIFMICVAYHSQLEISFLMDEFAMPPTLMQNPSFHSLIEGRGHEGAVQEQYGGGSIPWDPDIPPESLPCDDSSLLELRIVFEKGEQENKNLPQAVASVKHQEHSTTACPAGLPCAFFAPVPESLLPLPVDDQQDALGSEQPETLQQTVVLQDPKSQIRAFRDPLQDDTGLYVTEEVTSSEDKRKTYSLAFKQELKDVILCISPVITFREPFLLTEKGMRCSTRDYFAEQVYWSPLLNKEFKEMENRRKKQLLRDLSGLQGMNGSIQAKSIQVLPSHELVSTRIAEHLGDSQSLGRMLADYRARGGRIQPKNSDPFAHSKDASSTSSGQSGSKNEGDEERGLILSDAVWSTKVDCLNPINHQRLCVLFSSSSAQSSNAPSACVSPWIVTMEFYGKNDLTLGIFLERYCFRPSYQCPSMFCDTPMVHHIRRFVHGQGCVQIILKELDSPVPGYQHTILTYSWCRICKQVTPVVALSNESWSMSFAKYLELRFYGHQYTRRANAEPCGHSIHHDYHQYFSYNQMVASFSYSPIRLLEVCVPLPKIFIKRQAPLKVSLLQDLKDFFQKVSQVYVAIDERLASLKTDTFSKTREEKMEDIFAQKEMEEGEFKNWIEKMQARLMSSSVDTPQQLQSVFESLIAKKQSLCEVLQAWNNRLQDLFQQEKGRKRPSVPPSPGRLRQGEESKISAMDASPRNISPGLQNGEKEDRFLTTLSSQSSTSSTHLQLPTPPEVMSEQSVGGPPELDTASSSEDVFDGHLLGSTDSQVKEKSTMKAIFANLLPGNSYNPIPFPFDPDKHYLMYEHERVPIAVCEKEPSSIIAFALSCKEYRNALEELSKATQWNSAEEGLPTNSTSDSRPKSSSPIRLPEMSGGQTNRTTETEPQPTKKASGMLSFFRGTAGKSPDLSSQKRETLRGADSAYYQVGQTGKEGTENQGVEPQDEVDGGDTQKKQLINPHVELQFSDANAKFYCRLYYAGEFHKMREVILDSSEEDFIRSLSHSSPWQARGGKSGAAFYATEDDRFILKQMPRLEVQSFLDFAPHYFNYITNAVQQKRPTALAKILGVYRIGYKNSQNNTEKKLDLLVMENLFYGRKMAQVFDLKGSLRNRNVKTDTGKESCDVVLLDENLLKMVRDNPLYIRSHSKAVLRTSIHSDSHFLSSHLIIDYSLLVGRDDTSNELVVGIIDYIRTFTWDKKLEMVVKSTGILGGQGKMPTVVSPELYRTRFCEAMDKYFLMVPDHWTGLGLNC

Q: How did the percent of control binding at 10 µM (PIKFYVE; [4]) turn out when `NC(=O)c1cccc2cn(-c3ccc([C@@H]4CCCNC4)cc3)nc12` [Niraparib] was run?
A: The percent of control binding at 10 µM was 75%.

Q: And the percent of control binding at 10 µM [1, 4]?
A: The percent of control binding at 10 µM was 90%.

Q: And the percent of control binding at 10 µM (PLK4; [4])?
A: The percent of control binding at 10 µM was 56%.

Q: And the percent of control binding at 10 µM (EGFR(L747-T751del,Sins); [4])?
A: The percent of control binding at 10 µM was 90%.

Q: And the percent of control binding at 10 µM (DYRK1A; [4])?
A: Its percent of control binding at 10 µM is 0.2%.

Q: What about the percent of control binding at 10 µM [2, 4] of the same compound?
A: Its percent of control binding at 10 µM is 64%.

Q: What about the percent of control binding at 10 µM (PIK3CA(Q546K); [4]) of the same compound?
A: The percent of control binding at 10 µM was 100%.

Q: What about the percent of control binding at 10 µM (S6K1; [4]) of the same compound?
A: Its percent of control binding at 10 µM is 94%.

Q: What about the percent of control binding at 10 µM (TSSK3; [4]) of the same compound?
A: The percent of control binding at 10 µM was 91%.

Q: And the percent of control binding at 10 µM [3, 4]?
A: Its percent of control binding at 10 µM is 100%.

Q: `O=C(c1cc(Cc2n[nH]c(=O)c3ccccc23)ccc1F)N1CCN(C(=O)C2CC2)CC1` [Olaparib] was tested. Which percent of control binding at 10 µM (PIKFYVE; [5]) did it give?
A: Its percent of control binding at 10 µM is 100%.

Q: And the percent of control binding at 10 µM [1, 5]?
A: Its percent of control binding at 10 µM is 79%.

Q: And the percent of control binding at 10 µM (PLK4; [5])?
A: Its percent of control binding at 10 µM is 91%.

Q: And the percent of control binding at 10 µM (EGFR(L747-T751del,Sins); [5])?
A: The percent of control binding at 10 µM was 81%.

Q: What about the percent of control binding at 10 µM (DYRK1A; [5]) of the same compound?
A: Its percent of control binding at 10 µM is 95%.

Q: What about the percent of control binding at 10 µM [2, 5] of the same compound?
A: The percent of control binding at 10 µM was 89%.

Q: And the percent of control binding at 10 µM (PIK3CA(Q546K); [5])?
A: The percent of control binding at 10 µM was 90%.

Q: And the percent of control binding at 10 µM (S6K1; [5])?
A: Its percent of control binding at 10 µM is 73%.

Q: What about the percent of control binding at 10 µM (TSSK3; [5]) of the same compound?
A: The percent of control binding at 10 µM was 89%.

Q: And the percent of control binding at 10 µM [3, 5]?
A: The percent of control binding at 10 µM was 81%.

Q: With `CNCc1ccc(-c2[nH]c3cc(F)cc4c3c2CCNC4=O)cc1` [Rucaparib] as the compound, how does the percent of control binding at 10 µM (PIKFYVE; [6]) read?
A: Its percent of control binding at 10 µM is 92%.

Q: What about the percent of control binding at 10 µM [1, 6] of the same compound?
A: Its percent of control binding at 10 µM is 72%.

Q: What about the percent of control binding at 10 µM (PLK4; [6]) of the same compound?
A: Its percent of control binding at 10 µM is 99%.

Q: What about the percent of control binding at 10 µM (EGFR(L747-T751del,Sins); [6]) of the same compound?
A: The percent of control binding at 10 µM was 86%.

Q: What about the percent of control binding at 10 µM (DYRK1A; [6]) of the same compound?
A: The percent of control binding at 10 µM was 0.4%.

Q: And the percent of control binding at 10 µM [2, 6]?
A: Its percent of control binding at 10 µM is 91%.

Q: And the percent of control binding at 10 µM (PIK3CA(Q546K); [6])?
A: Its percent of control binding at 10 µM is 93%.

Q: What about the percent of control binding at 10 µM (S6K1; [6]) of the same compound?
A: The percent of control binding at 10 µM was 60%.

Q: And the percent of control binding at 10 µM (TSSK3; [6])?
A: The percent of control binding at 10 µM was 0%.

Q: And the percent of control binding at 10 µM [3, 6]?
A: Its percent of control binding at 10 µM is 100%.

Q: Which results are given for `Cn1ncnc1[C@H]1c2n[nH]c(=O)c3cc(F)cc(c23)N[C@@H]1c1ccc(F)cc1` [Talazoparib]?
A: percent of control binding at 10 µM (PIKFYVE; [7]): 80%; percent of control binding at 10 µM [1, 7]: 75%; percent of control binding at 10 µM (PLK4; [7]): 72%; percent of control binding at 10 µM (EGFR(L747-T751del,Sins); [7]): 89%; percent of control binding at 10 µM (DYRK1A; [7]): 94%; percent of control binding at 10 µM [2, 7]: 100%; percent of control binding at 10 µM (PIK3CA(Q546K); [7]): 100%; percent of control binding at 10 µM (S6K1; [7]): 62%; percent of control binding at 10 µM (TSSK3; [7]): 84%; percent of control binding at 10 µM [3, 7]: 100%
